Results reported in US20040138274A1, “Novel pharmaceuticals” (priority 2002, published 2004).

How the values were obtained:
NEP from human kidney = biological target: T1, NEP from human kidney (Homo sapiens, UniProt P08473); test: Assay 2: modified NEP fluorescence assay for potent tight-binding inhibitors; format: biochemical; conditions: as determined by Assay 2, substrate Abz-D-Arg-Arg-Leu-EDDnp, read-out: IC50 against NEP
T1 construct: Enzyme: NEP from human kidney (prepared using the method of Kenny and Booth); from tissue; host or cells: human kidney
T1 sequence (P08473 whole entry): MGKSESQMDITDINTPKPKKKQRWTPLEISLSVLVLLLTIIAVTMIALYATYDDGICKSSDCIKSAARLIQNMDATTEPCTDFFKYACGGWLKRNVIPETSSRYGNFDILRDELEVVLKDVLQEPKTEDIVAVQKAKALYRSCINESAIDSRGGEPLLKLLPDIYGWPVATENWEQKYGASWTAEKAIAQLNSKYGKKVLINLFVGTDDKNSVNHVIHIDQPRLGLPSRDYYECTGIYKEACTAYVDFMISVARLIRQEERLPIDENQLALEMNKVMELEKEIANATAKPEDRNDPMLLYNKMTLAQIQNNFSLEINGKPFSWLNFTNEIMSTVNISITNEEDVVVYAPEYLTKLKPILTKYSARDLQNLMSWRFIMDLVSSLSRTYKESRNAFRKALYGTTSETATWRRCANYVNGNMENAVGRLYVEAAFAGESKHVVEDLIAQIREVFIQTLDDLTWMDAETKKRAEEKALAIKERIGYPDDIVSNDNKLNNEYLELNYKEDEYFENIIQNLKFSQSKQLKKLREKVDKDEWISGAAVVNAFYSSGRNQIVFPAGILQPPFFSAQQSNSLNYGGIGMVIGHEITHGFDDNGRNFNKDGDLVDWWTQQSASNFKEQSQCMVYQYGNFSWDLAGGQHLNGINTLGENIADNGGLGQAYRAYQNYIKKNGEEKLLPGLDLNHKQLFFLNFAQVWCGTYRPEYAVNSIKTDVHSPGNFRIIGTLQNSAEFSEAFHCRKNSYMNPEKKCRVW
Protocol: Assay 2: This is a modification of Assay 1 which is adapted for potent tight-binding inhibitors.
Buffer: 50 mM Tris pH 7.4
Buffer containing 4% DMSO: 4 ml DMSO added to 96 ml buffer
Enzyme: NEP from human kidney (prepared using the method of Kenny and Booth, Biochem. J. 142, 575, 1974) aliquots stored at −70° C. The NEP activity of each preparation is determined by using serial dilutions of the preparation in this assay without inhibitor, a dilution that achieves 10 to 15% conversion of substrate is used in inhibitor studies.
Inhibitors: Inhibitors are dissolved in DMSO to give a 10 mM solution then further diluted to 1 mM in DMSO. A further dilution is made (40 μl into 960 μl buffer) to give 4×10^−5M inhibitor in buffer containing 4% DMSO. All further dilutions are made in buffer containing 4% DMSO. Inhibitors are assayed utilising an eight point (half log units) dose response curve in duplicate.
Substrate: The substrate (Abz-D-Arg-Arg-Leu-EDDnp, K. M. Carvalho et al. Analytical Biochem 237, 167-173 (1996)) is stored at −70° C. A 2 mM stock is made in buffer and aliquots stored at −70° C. for up to 1 month.
Stop solution: Phosphoramidon (Sigma R7385) 300 nM in buffer. Aliquots of 300 μM solution are stored at −20° C. and diluted 1000 fold in buffer.
Product: Two samples corresponding to 100% conversion of substrate to product are included in the assay to enable the % substrate turnover to be determined. Add 200 μl of 25 μM product and 100 μl stop solution. A stock of this is generated by incubating 1 ml of 25 μM substrate with 20 μl of enzyme stock overnight at 37° C., aliquot and store at −70° C.
Plates: Black Costar 96 well plate Cat# 3915
Fluorescence reader: BMG Fluostar, read at ex320 em420
1. Add 50 μl of inhibitor (4× assay conc)
3. Add 50 μl of enzyme dilution (1:800)
4. Incubate at 37° C. for 1 hour
5. Initiate the reaction by adding 20 μl of substrate
5. Incubate at 37° C. for 3 hours
6. Add 100 μl of stop solution.
7. Read fluorescence using a FLUOstar. (Ex320/Em420
Included in each assay are:
Non enzyme blanks (enzyme replaced with buffer and compound dilution replaced with 4% DMSO buffer)
Controls (compound dilution replaced with 4% DMSO buffer)
Total product (see below)

[1] = system: black patients with essential hypertension; conditions: clinical study of 24 black patients with essential hypertension; cited from earlier work
hypertensive patients = conditions: added to the ACE inhibitor lisinopril; clinical study involving 37 hypertensive patients; cited from earlier work
hypertensive rats = conditions: cited from earlier work

SMILES	IC50 (NEP from human kidney) [nM]	further results
COCC[C@H](CC1(C(=O)N[C@@H](Cc2ncc(-c3ccc(F)cc3)o2)C(=O)O)CCCC1)C(=O)O [Example 26]	0.3	–
COCC[C@H](CC1(C(=O)N[C@@H](Cc2ncc(-c3ccc(Cl)cc3)o2)C(=O)O)CCCC1)C(=O)O [Example 30, (2S)-2-(1-{(1S)-1-Carboxy-2-[5-(4-chloro-phenyl)-oxazol-2-yl]-ethylcarbamoyl}-cyclopentylmethyl)-4-methoxy-butyric Acid]	0.3	–
CC1(C)OCC(COC(=O)C(Cc2ccccc2)N[C@@H](Cc2ccccc2)C(=O)NCCC(=O)O)O1 (stereo partly shown) [SCH34826]	–	supine blood pressure [1]: significantly lowered supine blood pressure
COCCOC[C@H](CC1(C(=O)N[C@H]2CC[C@@H](C(=O)O)CC2)CCCC1)C(=O)Oc1ccc2c(c1)CCC2 [candoxatril]	–	supine and erect blood pressure (hypertensive patients): marked reduction in both supine and erect blood pressure
COCCOC[C@H](CC1(C(=O)N[C@H]2CC[C@@H](C(=O)O)CC2)CCCC1)C(=O)O [candoxatrilat]	–	systolic blood pressure (hypertensive rats): lowers systolic blood pressure

Further lines, with some results ahead:

IC50 (NEP from human kidney) [nM]	SMILES	further results
0.7	CCC[C@H](CC1(C(=O)N[C@@H](Cc2ncc(-c3ccccc3)o2)C(=O)O)CCCC1)C(=O)O [Example 29, (2R)-2-{1-[(1S)-1-Carboxy-2-(5-phenyl-oxazol-2-yl)-ethylcarbamoyl]-cyclopentylmethyl}-pentanoic Acid]	–
0.3	COCC[C@H](CC1(C(=O)N[C@@H](Cc2ncc(-c3ccccc3)o2)C(=O)O)CCCC1)C(=O)O [Example 40, (2S)-2-{1-[(1S)-1-Carboxy-2-(5-phenyl-oxazol-2-yl)-ethylcarbamoyl]-cyclopentylmethyl}-4-methoxy-butyric Acid]	–
